Results: patent publication EP4745135A1 (Gluetacs Therapeutics (Shanghai) Co., Ltd., priority 2023, dated 2025)

Columns and labels:
CK1α = target: T1, CK1α (Homo sapiens, UniProt P48729+Q96SW2); experiment: Western blot, degradation of substrate protein in hPBMCs; format: cell-based
T1 construct: effects of the compounds of the present disclosure on the expression of target proteins in cells; endogenous in cells; host or cells: human PBMCs (Milecell Biotechnologies)

IKZF1 = target: T2, IKZF1 (Homo sapiens, UniProt Q13422+Q96SW2); experiment: as above; format: cell-based
T2 construct: effects of the compounds of the present disclosure on the expression of target proteins in cells; endogenous in cells; host or cells: human PBMCs (Milecell Biotechnologies)
T2 sequence (Q13422 whole entry): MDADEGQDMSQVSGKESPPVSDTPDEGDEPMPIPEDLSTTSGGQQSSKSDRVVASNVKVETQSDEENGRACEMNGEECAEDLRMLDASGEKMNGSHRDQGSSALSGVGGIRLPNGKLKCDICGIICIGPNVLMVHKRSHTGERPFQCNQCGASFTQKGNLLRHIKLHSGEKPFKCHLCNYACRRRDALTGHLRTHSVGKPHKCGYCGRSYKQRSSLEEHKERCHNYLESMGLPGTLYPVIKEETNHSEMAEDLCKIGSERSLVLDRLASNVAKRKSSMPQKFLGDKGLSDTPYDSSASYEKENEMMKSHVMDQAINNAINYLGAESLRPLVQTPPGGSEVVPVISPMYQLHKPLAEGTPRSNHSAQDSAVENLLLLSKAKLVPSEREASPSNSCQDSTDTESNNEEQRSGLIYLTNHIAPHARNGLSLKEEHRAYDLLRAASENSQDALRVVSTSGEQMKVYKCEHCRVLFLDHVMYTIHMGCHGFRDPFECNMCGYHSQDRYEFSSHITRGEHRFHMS
T2 sequence (Q96SW2 whole entry): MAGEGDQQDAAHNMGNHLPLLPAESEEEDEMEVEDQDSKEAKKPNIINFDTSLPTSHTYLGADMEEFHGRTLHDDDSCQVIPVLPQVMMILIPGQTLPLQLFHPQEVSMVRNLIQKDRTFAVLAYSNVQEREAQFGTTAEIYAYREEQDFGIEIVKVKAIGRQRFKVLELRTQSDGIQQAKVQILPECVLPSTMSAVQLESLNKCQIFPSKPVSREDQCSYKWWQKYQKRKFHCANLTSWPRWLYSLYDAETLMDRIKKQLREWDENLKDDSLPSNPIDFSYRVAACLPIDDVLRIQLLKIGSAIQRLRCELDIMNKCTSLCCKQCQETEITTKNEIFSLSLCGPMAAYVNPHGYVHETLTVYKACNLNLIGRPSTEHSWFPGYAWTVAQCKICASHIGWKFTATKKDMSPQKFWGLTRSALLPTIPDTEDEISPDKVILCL
T2 sequence (Q16531 whole entry partner): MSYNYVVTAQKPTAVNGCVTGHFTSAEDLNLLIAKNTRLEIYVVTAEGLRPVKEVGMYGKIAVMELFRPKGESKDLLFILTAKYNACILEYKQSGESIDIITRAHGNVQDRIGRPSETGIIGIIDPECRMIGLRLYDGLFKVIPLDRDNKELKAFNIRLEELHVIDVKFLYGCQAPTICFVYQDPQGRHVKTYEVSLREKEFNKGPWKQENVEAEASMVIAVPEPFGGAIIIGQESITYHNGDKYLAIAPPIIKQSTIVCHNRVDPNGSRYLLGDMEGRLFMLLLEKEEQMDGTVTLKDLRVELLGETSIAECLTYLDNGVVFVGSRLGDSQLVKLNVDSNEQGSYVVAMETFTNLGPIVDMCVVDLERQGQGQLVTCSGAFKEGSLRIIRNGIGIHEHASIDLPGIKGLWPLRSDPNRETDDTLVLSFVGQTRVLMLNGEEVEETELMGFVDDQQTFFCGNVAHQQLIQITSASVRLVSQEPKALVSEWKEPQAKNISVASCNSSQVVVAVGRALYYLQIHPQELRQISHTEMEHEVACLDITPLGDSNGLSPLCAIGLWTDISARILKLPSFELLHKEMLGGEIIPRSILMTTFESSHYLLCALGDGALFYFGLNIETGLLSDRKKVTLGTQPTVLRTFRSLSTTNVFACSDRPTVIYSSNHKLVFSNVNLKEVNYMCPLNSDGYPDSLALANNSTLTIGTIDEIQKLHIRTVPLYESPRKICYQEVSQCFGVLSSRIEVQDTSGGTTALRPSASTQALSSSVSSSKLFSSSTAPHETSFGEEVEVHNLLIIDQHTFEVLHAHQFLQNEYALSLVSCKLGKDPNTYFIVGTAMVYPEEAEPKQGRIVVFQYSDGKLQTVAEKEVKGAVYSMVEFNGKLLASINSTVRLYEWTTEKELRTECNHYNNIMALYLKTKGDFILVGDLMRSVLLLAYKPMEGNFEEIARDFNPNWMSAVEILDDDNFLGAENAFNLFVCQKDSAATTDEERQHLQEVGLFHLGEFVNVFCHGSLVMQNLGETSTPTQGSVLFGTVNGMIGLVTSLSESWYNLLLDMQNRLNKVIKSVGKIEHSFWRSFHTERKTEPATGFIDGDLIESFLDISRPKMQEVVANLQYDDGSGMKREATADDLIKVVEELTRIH

IKZF2 = target: T3, IKZF2 (Homo sapiens, UniProt Q96SW2+Q9UKS7); experiment: as above; format: cell-based
T3 construct: effects of the compounds of the present disclosure on the expression of target proteins in cells; endogenous in cells; host or cells: human PBMCs (Milecell Biotechnologies)
T3 sequence (Q9UKS7 whole entry): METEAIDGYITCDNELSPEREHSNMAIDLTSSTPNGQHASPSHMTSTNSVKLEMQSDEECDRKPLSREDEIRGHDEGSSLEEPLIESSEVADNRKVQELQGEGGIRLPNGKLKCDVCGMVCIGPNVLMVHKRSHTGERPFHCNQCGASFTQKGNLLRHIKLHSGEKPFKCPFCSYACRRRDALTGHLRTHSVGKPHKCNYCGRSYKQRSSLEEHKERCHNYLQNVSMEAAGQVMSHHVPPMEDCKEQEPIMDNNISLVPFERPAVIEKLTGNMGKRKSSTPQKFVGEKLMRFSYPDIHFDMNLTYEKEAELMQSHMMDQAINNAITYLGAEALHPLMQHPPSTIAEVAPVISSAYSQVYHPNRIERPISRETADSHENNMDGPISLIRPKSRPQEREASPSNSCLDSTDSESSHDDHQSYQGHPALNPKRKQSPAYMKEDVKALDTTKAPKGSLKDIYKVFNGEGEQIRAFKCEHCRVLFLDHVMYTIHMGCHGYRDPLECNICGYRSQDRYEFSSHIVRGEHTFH
T3 sequence (Q96SW2 whole entry): as the sequence (Q96SW2 whole entry) above
T3 sequence (Q16531 whole entry partner): as the sequence (Q16531 whole entry partner) above

IKZF3 = target: T4, IKZF3 (Homo sapiens, UniProt Q96SW2+Q9UKT9); experiment: as above; format: cell-based
T4 construct: effects of the compounds of the present disclosure on the expression of target proteins in cells; endogenous in cells; host or cells: human PBMCs (Milecell Biotechnologies)
T4 sequence (Q9UKT9 whole entry): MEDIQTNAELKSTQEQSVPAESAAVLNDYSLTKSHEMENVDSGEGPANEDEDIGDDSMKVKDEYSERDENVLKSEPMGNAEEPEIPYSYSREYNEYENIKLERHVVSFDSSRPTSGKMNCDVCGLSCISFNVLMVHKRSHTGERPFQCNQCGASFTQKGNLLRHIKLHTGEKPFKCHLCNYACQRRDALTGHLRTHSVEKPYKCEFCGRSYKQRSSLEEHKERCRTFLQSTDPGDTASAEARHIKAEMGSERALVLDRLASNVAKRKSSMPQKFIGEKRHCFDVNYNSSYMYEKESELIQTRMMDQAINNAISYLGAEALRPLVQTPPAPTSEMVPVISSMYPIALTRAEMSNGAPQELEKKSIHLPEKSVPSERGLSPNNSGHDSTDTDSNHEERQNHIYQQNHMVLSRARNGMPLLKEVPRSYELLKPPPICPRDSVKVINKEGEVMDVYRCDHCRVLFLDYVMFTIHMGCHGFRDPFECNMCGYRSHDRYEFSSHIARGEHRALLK
T4 sequence (Q96SW2 whole entry): as the sequence (Q96SW2 whole entry) above
T4 sequence (Q16531 whole entry partner): as the sequence (Q16531 whole entry partner) above

WEE1 = target: T5, WEE1 (Homo sapiens, UniProt P30291+Q96SW2); experiment: as above; format: cell-based
T5 construct: effects of the compounds of the present disclosure on the expression of target proteins in cells; endogenous in cells; host or cells: human PBMCs (Milecell Biotechnologies)
T5 sequence (P30291 whole entry): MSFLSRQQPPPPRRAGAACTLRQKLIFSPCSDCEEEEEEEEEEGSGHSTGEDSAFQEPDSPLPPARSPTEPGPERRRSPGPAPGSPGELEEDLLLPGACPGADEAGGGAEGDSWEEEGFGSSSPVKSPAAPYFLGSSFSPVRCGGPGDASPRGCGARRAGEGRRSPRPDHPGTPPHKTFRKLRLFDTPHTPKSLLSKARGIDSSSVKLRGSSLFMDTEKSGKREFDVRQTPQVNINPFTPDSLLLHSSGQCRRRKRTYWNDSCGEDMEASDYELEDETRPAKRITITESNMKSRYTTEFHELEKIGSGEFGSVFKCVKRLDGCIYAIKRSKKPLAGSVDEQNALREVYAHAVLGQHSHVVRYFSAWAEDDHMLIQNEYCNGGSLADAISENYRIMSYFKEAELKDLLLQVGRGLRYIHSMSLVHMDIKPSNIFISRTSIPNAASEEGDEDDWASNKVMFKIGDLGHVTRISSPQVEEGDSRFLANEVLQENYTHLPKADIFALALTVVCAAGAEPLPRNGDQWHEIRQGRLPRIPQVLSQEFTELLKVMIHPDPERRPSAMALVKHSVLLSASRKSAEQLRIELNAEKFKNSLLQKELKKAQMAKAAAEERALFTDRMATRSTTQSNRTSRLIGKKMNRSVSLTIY
T5 sequence (Q96SW2 whole entry): as the sequence (Q96SW2 whole entry) above
T5 sequence (Q16531 whole entry partner): as the sequence (Q16531 whole entry partner) above

GSPT1 = experiment: as above; format: cell-based, Human
[1] = target: T6, human Cereblon WT GST-tagged protein (Homo sapiens, UniProt Q96SW2); experiment: CRBN-binding affinity, HTRF (CEREBLON BINDING kit); details: for inhibition at 0.5 µM: read-out: Inhibition Rate at 0.5 µM (%); for inhibition at 2 µM: read-out: Inhibition Rate at 2 µM (%)
T6 construct: purchased CISBIO 64BDCRBNPEH
T6 sequence (Q96SW2 whole entry): as the sequence (Q96SW2 whole entry) above

[2] = 24 hours treatment, compounds at 50 nM and 500 nM (concentration behind the class not stated)
[3] = Western blot, 24 hours of compound treatment, compounds tested at 50 nM and 500 nM (concentration for the table not stated)

T1 sequence (P48729 whole entry): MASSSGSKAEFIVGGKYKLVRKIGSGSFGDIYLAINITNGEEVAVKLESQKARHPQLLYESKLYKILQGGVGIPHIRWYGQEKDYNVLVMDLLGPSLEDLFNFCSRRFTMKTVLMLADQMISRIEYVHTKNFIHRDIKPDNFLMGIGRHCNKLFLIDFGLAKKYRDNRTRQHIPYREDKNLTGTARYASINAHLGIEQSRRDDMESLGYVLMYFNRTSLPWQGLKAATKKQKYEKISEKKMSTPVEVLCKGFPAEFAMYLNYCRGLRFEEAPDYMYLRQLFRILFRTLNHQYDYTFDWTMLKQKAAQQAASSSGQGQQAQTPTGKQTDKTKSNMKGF
T1 sequence (Q96SW2 whole entry): as the sequence (Q96SW2 whole entry) above
T1 sequence (Q16531 whole entry partner): as the sequence (Q16531 whole entry partner) above

SMILES | inhibition at 0.5 µM [1] [%] | inhibition at 2 µM [1] [%] | CK1α substrate protein remaining % (CK1α; [2]) | IKZF 1 substrate protein remaining % (IKZF1; [2]) | IKZF2 substrate protein remaining % (IKZF2; [2]) | IKZF3 substrate protein remaining % (IKZF3; [2]) | Wee1 substrate protein remaining % (WEE1; [2]) | GSPT1 substrate protein remaining % (GSPT1; [2]) | CK1α substrate protein remaining % (CK1α; [3]) | IKZF 1 substrate protein remaining % (IKZF1; [3]) | IKZF2 substrate protein remaining % (IKZF2; [3]) | IKZF3 substrate protein remaining % (IKZF3; [3]) | Wee1 substrate protein remaining % (WEE1; [3]) | GSPT1 substrate protein remaining % (GSPT1; [3])
CC1(C)CCC(CN2C3CC2CN(Cc2ccc4c(c2)CN(C2CCC(=O)NC2=O)C4=S)C3)=C(c2ccc(Cl)cc2)C1 (stereo not shown) [GT-08161, 3-(5-((6-((4'-chloro-5,5-dimethyl-3,4,5,6-tetrahydro-[1,1'-biphenyl]-2-yl)methyl)-3,6-diazabicyclo[3.1.1]heptan-3-yl)methyl)-1-thioxoisoindolin-2-yl)piperidine-2,6-dione] | 40 to 53 | 80 to 100 | B (80%< substrate protein remaining %≤ 100%) | B (80%< substrate protein remaining %≤ 100%) | A (0% ≤ substrate protein remaining % ≤ 80%) | A (0% ≤ substrate protein remaining % ≤ 80%) | A (0% ≤ substrate protein remaining % ≤ 80%) | A (0% ≤ substrate protein remaining % ≤ 80%) |  |  |  |  |  | 
CC1(C)CCC(CN2C3CCC2CN(Cc2ccc4c(c2)CN(C2CCC(=O)NC2=O)C4=S)C3)=C(c2ccc(Cl)cc2)C1 (stereo not shown) [GT-08162, 3-(5-((8-((4'-chloro-5,5-dimethyl-3,4,5,6-tetrahydro-[1,1'-biphenyl]-2-yl)methyl)-3,8-diazabicyclo[3.2.1]octan-3-yl)methyl)-1-thioxoisoindolin-2-yl)piperidine-2,6-dione] | 30 to 40 | 60 to 80 | B (80%< substrate protein remaining %≤ 100%) | B (80%< substrate protein remaining %≤ 100%) | B (80%< substrate protein remaining %≤ 100%) | B (80%< substrate protein remaining %≤ 100%) | A (0% ≤ substrate protein remaining % ≤ 80%) | B (80%< substrate protein remaining %≤ 100%) |  |  |  |  |  | 
CC1(C)CCC(CN2CC3CCC(C2)N3Cc2ccc3c(c2)CN(C2CCC(=O)NC2=O)C3=S)=C(c2ccc(Cl)cc2)C1 (stereo not shown) [GT-08163, 3-(5-((3-((4'-chloro-5,5-dimethyl-3,4,5,6-tetrahydro-[1,1'-biphenyl]-2-yl)methyl)-3,8-diazabicyclo[3.2.1]octan-8-yl)methyl)-1-thioxoisoindolin-2-yl)piperidine-2,6-dione] | 53 to 60 | 60 to 80 | B (80%< substrate protein remaining %≤ 100%) | A (0% ≤ substrate protein remaining % ≤ 80%) | B (80%< substrate protein remaining %≤ 100%) | B (80%< substrate protein remaining %≤ 100%) | A (0% ≤ substrate protein remaining % ≤ 80%) | A (0% ≤ substrate protein remaining % ≤ 80%) |  |  |  |  |  | 
O=C1CCC(N2Cc3c(CN4C[C@H]5C[C@@H]4CN5C(c4ccccc4)c4ccccc4)cccc3C2=S)C(=O)N1 (stereo partly drawn) [GT-08208, 3-(4-(((1R,4R)-5-benzhydryl-2,5-diazabicyclo[2.2.1]heptan-2-yl)methyl)-1-thioxoisoindolin-2-yl)piperidine-2,6-dione] | 40 to 53 | 80 to 100 |  |  |  |  |  |  | B (80%< substrate protein remaining %≤ 100%) | B (80%< substrate protein remaining %≤ 100%) | A (0% ≤ substrate protein remaining % ≤ 80%) | B (80%< substrate protein remaining %≤ 100%) | A (0% ≤ substrate protein remaining % ≤ 80%) | A (0% ≤ substrate protein remaining % ≤ 80%)
O=C1CCC(N2Cc3c(CN4CCC(N(c5ccccc5)c5ccccc5)CC4)cccc3C2=S)C(=O)N1 (stereo not shown) [GT-08209, 3-(4-((4-(diphenylamino)piperidin-1-yl)methyl)-1-thioxoisoindolin-2-yl)piperidine-2,6-dione] | 60 to 80 | 80 to 100 |  |  |  |  |  |  | B (80%< substrate protein remaining %≤ 100%) | B (80%< substrate protein remaining %≤ 100%) | B (80%< substrate protein remaining %≤ 100%) | B (80%< substrate protein remaining %≤ 100%) | A (0% ≤ substrate protein remaining % ≤ 80%) | A (0% ≤ substrate protein remaining % ≤ 80%)

The next lines start with results.

inhibition at 0.5 µM [1] [%] | inhibition at 2 µM [1] [%] | SMILES | CK1α substrate protein remaining % (CK1α; [2]) | IKZF 1 substrate protein remaining % (IKZF1; [2]) | IKZF2 substrate protein remaining % (IKZF2; [2]) | IKZF3 substrate protein remaining % (IKZF3; [2]) | Wee1 substrate protein remaining % (WEE1; [2]) | GSPT1 substrate protein remaining % (GSPT1; [2]) | CK1α substrate protein remaining % (CK1α; [3]) | IKZF 1 substrate protein remaining % (IKZF1; [3]) | IKZF2 substrate protein remaining % (IKZF2; [3]) | IKZF3 substrate protein remaining % (IKZF3; [3]) | Wee1 substrate protein remaining % (WEE1; [3]) | GSPT1 substrate protein remaining % (GSPT1; [3])
40 to 53 | 80 to 100 | O=C1CCC(N2Cc3cc(CN4CCN(CC5=C(c6ccc(F)cc6)CCCC5)CC4)ccc3C2=S)C(=O)N1 (stereo not shown) [GT-08164, 3-(5-((4-((4'-fluoro-3,4,5,6-tetrahydro-[1,1'-biphenyl]-2-yl)methyl)piperazin-1-yl)methyl)-1-thioxoisoindolin-2-yl)piperidine-2,6-dione] | B (80%< substrate protein remaining %≤ 100%) | A (0% ≤ substrate protein remaining % ≤ 80%) | A (0% ≤ substrate protein remaining % ≤ 80%) | A (0% ≤ substrate protein remaining % ≤ 80%) | A (0% ≤ substrate protein remaining % ≤ 80%) | A (0% ≤ substrate protein remaining % ≤ 80%) |  |  |  |  |  | 
40 to 53 | 80 to 100 | CC1(C)CC(c2ccc(Cl)cc2)=C(CN2CCN(Cc3ccc4c(c3)CN(C3CCC(=O)NC3=O)C4=S)CC2)CO1 (stereo not shown) [GT-08167, 3-(5-((4-((4-(4-chlorophenyl)-6,6-dimethyl-5,6-dihydro-2H-pyran-3-yl)methyl)piperazin-1-yl)methyl)-1-thioxoisoindolin-2-yl)piperidine-2,6-dione] | B (80%< substrate protein remaining %≤ 100%) | B (80%< substrate protein remaining %≤ 100%) | A (0% ≤ substrate protein remaining % ≤ 80%) | A (0% ≤ substrate protein remaining % ≤ 80%) | A (0% ≤ substrate protein remaining % ≤ 80%) | A (0% ≤ substrate protein remaining % ≤ 80%) |  |  |  |  |  | 
80 to 100 | 80 to 100 | O=C1CCC(N2Cc3cc(CN4CCN(c5cccs5)CC4)ccc3C2=S)C(=O)N1 (stereo not shown) [GT-08168, 3-(5-((4-(thiophen-2-yl)piperazin-1-yl)methyl)-1-thioxoisoindolin-2-yl)piperidine-2,6-dione] | B (80%< substrate protein remaining %≤ 100%) | B (80%< substrate protein remaining %≤ 100%) | B (80%< substrate protein remaining %≤ 100%) | B (80%< substrate protein remaining %≤ 100%) | A (0% ≤ substrate protein remaining % ≤ 80%) | A (0% ≤ substrate protein remaining % ≤ 80%) |  |  |  |  |  | 
80 to 100 | 80 to 100 | O=C1CCC(N2Cc3cc(CN4CCN(c5ccsc5)CC4)ccc3C2=S)C(=O)N1 (stereo not shown) [GT-08169, 3-(5-((4-(thiophen-3-yl)piperazin-1-yl)methyl)-1-thioxoisoindolin-2-yl)piperidine-2,6-dione] | B (80%< substrate protein remaining %≤ 100%) | B (80%< substrate protein remaining %≤ 100%) | B (80%< substrate protein remaining %≤ 100%) | B (80%< substrate protein remaining %≤ 100%) | A (0% ≤ substrate protein remaining % ≤ 80%) | A (0% ≤ substrate protein remaining % ≤ 80%) |  |  |  |  |  | 
30 to 40 | 60 to 80 | O=C1CCC(N2Cc3c(CN4CCN(C(c5ccccc5)c5ccccc5)CC4)cccc3C2=S)C(=O)N1 (stereo not shown) [GT-08191, 3-(4-((4-benzhydrylpiperazin-1-yl)methyl)-1-thioxoisoindolin-2-yl)piperidine-2,6-dione] |  |  |  |  |  |  | B (80%< substrate protein remaining %≤ 100%) | B (80%< substrate protein remaining %≤ 100%) | B (80%< substrate protein remaining %≤ 100%) | B (80%< substrate protein remaining %≤ 100%) | B (80%< substrate protein remaining %≤ 100%) | A (0% ≤ substrate protein remaining % ≤ 80%)
30 to 40 | 53 to 60 | O=C1CCC(N2Cc3c(CN4CCN(C(c5ccc(Cl)cc5)c5ccc(Cl)cc5)CC4)cccc3C2=S)C(=O)N1 (stereo not shown) [GT-08203, 3-(4-((4-(bis(4-chlorophenyl)methyl)piperazin-1-yl)methyl)-1-thioxoisoindolin-2-yl)piperidine-2,6-dione] |  |  |  |  |  |  | B (80%< substrate protein remaining %≤ 100%) | B (80%< substrate protein remaining %≤ 100%) | A (0% ≤ substrate protein remaining % ≤ 80%) | A (0% ≤ substrate protein remaining % ≤ 80%) | A (0% ≤ substrate protein remaining % ≤ 80%) | A (0% ≤ substrate protein remaining % ≤ 80%)
